Source: patent US4521537A, “Spiro[2H-1,4-benzodioxepin-3(5H)4'-piperidine and -3'-pyrrolidine] compounds and their use as antihypertensive agents” (Hoechst-Roussel Pharmaceuticals Incorporated, priority 1984, dated 1985)
Structures can show the parent of a compound that is named as a salt. Where two headings read alike, the source gives them in different places.

Experiments:
mice = assay: phenylquinone-induced writhing test in mice (PQW), analgesia; assay type: in vivo, male, CD-1 mice; details: Mus musculus; for change in vivo at 20 mg/kg / change in vivo at 5 mg/kg / change in vivo at 10 mg/kg: read-out: PQW % (percent inhibition of writhing); for change in vivo at 5 mg/kg: 5 mg/kg SC; for ED50: read-out: ED50 (PQW)
Description: Compounds of this invention produce analgesia when administered to mammals. A phenylquinone-induced writhing test in mice (PQW) was used as an assay to detect analgesia. The procedure employed was a modification of Siegmund, E., Cadmus, R. and Lu, G: Proc. Soc. Exptl. Bio. Med., 95: 729 (1957). 12.5 mg of phenyl-p-benzoquinone were dissolved in 5 ml of 95% ethanol and q.s. to 100 ml with distilled water and administered to mice (10 ml/kg, i.p.). This produces a characteristic "writhe" which is defined as an inward rotation of one or more feet with twisting and turning of the trunk, drawing in of the abdominal wall, lordosis and arching of the back.
A total of 28 male, CD-1 mice (18 to 30 grams) were employed for a time response. Animals recived food and water ad libitum. Drugs to be tested were prepared with distilled water and, if insoluble, one drop of a suitable surfactant was added.
Twenty animals (5/group) were administered the drug 15, 30, 45 and 60 minutes prior to phenylquinone injections. Control animals (2/group) received an equal amount of vehicle. After the administration of phenylquinone the mice were placed separately into one-liter beakers and 5 minutes were allowed to lapse. The mice were then observed for a period of 10 minutes and the number of writhes were recorded for each animal. The formula for computing percent inhibition is: [formula]
The time period with the greatest percent of inhibition is considered the peak time.
A dose range is run in the same fashion as a time response except 10 animals per group were tested at the peak time of drug activity. Fifty animals, 4 drug groups, and a vehicle control were employed. Animals were dosed and tested in a randomized manner. An estimated ED50 was calculated by a computer linear regression analysis.

[1] = test system: spontaneous hypertensive rat; assay: antihypertensive activity, spontaneous hypertensive rat (SHR) test, indirect tail cuff method; assay type: in vivo; details: 50 mg/kg PO
Description: Compounds of this invention are useful as antihypertensive agents due to their ability to depress blood pressure in mammals. Antihypertensive activity is measured in the spontaneous hypertensive rat by the indirect tail cuff method described by A. Schwartz, Ed., Methods in Pharmacology, Vol. page 135, Appleton Century Crafts, New York (1971). […] The drop in blood pressure is measured on the third day following administration. The antihypertensive activity is expressed as mm Hg decrease in mean arterial blood pressure.

Row | SMILES | change in vivo at 20 mg/kg (mice; Table II, 20 mg/kg SC) [%] | SHR mm Hg (decrease in mean arterial blood pressure) ([1]; Table II) [mm Hg] | further results
1 | CC1Oc2ccccc2COC12CCN(CC#N)CC2 (centres unmarked) [Example 45, 1'-(Cyanomethyl)-2-methylspiro[2H-1,4-benzodioxepin-3(5H)-4'-piperidine]] | -15 | -29 | 
2 | CC1Oc2ccccc2COC12CCN(CCc1ccccc1)CC2 (centres unmarked) [Example 46, 2-Methyl-1'-(2-phenylethyl)-spiro[2H-1,4-benzodioxepin-3(5H)4'-piperidine]hydrochloride] |  | -12 | change in vivo at 5 mg/kg (mice; Table II): -87%
3 | CC1Oc2ccccc2COC12CCN(CCO)CC2 (centres unmarked) [Example 48, 1'-(2-Hydroxyethyl)-2-methylspiro[2H-1,4-benzodioxepin-3(5H)4'-piperidine]] | -39 | -23 | 
4 | CC1Oc2ccccc2COC12CCN(CCN)CC2 (centres unmarked) [Example 49, 1'-(2-Aminoethyl)-2-methylspiro[2H-1,4-benzodioxepin-3(5H)4'-piperidine]dioxalate] | -85 | -23 | ED50 (mice; Table II, SC, computer linear regression, peak time): 4.7 mg/kg
5 | CC1Oc2ccccc2COC12CCN(CCNC(=N)N)CC2 (centres unmarked) [Example 50, [2-(2-Methylspiro[2H-1,4-benzodioxepin-3(5H)4'-piperidin]-1'-yl)ethyl]-guanidine hemisulfate hemihydrate] | -8 |  | 
6 | CC1Oc2ccccc2COC12CCN(CC1CC1)CC2 (centres unmarked) [Example 51, 1'-Cyclopropylmethyl-2-methylspiro[2H-1,4-benzodioxepin-3(5H)4'-piperidine]oxalate] |  |  | change in vivo at 10 mg/kg (mice; Table II, 10 mg/kg SC): -61%
7 | CC1Oc2ccccc2COC12CCN(CCCc1noc3cc(F)ccc13)CC2 (centres unmarked) [Example 52, 1'-[3-(6-Fluoro-1,2-benzisoxazol-3-yl)propyl]-2-methylspiro[2H-1,4-benzodioxepin-3(5H)4'-piperidine]maleate] |  | -67 | change in vivo at 5 mg/kg (mice; Table II): -82%
8 | Cc1[nH]c2ccccc2c1CCCN1CCC2(CC1)OCc1ccccc1OC2C (centres unmarked) [Example 53, 2-Methyl-1'-[3-(2-methylindol-3-yl)propyl]spiro[2H-1,4-benzodioxepin-3(5H)4'-piperidine]fumarate] | -30 | -32 | 
9 | CCCCCN1CCC2(CC1)OCc1ccccc1OC2C (centres unmarked) [Example 54, 2-Methyl-1'-pentylspiro[2H-1,4-benzodioxepin-3(5H)4'-piperidine]oxalate] | -36 |  | 
10 | CC1Oc2ccccc2COC12CCN(CCCN)CC2 (centres unmarked) [Example 55, 2-Methyl-1'-(3-aminopropyl)spiro[2H-1,4-benzodioxepin-3(5H)4'-piperidine]dioxalate] | -28 | -28 | 
11 | CC1Oc2ccccc2COC12CCN(CCc1ccc([N+](=O)[O-])cc1)CC2 (centres unmarked) [Example 56, 1'-[2-(4-Nitrophenyl)ethyl]2-methylspiro[2H-1,4-benzodioxepin-3(5H)4'piperidine]oxalate] | -30 | -17 | 
12 | CC1Oc2ccccc2COC12CCN(CCc1ccc(N)cc1)CC2 (centres unmarked) [Example 57, 1'-[2-(4-Aminophenyl)ethyl]-2-methylspiro[2H-1,4-benzodioxepin-3(5H)4'-piperidine]maleate hydrate] | -99 | -12 | 
13 | CC1Oc2ccccc2COC12CCN(CCN(C)C)CC2 (centres unmarked) [Example 58, 1'-[2-(N,N-dimethylamino)ethyl]-2-methylspiro[2H-1,4-benzodioxepin-3(5H)4'-piperidine]dihydrochloride] | -6 |  | 
14 | CC1Oc2ccccc2COC12CCN(CCN1CCOCC1)CC2 (centres unmarked) [Example 59, 1'-[2-(1-Morpholino)ethyl]-2-methylspiro[2H-1,4-benzodioxepin-3(5H)4'-piperidine]dihydrochloride] | -52 | -18 | 
15 | CC1Oc2ccccc2COC12CCN(CCC(C#N)(c1ccccc1)c1ccccc1)CC2 (centres unmarked) [Example 61, 2-Methyl-1'-[3-cyano-3,3-diphenylpropyl]spiro[2H-1,4-benzodioxepin-3(5H)4'-piperidine]hydrochloride] |  |  | change in vivo at 20 mg/kg (mice; sc): -25%
16 | CC1Oc2cc(Cl)ccc2COC12CCNCC2 (centres unmarked) [Example 65, 8-Chloro-2-methylspiro[2H-1,4-benzodioxepin-3(5H)4'-piperidine]oxalate] |  |  | change in vivo at 10 mg/kg (mice; sc): -98%
17 | CC1Oc2cc(Cl)ccc2COC12CCN(CC#N)CC2 (centres unmarked) [Example 66, 8-Chloro-1'-cyanomethyl-2-methylspiro[2H-1,4-benzodioxepin-3(5H)4'-piperidine]] | -9 |  | 
18 | CC1Oc2ccccc2COC12CCN(CCC#N)CC2 (centres unmarked) [Example 67, 1'-(2-Cyanoethyl)-2-methylspiro[2H-1,4-benzodioxepin-3(5H)4'-piperidine]oxalate] | -40 | -30 | 
19 | COC(=N)N1CCC2(CC1)OCc1ccccc1OC2C (centres unmarked) [Example 69, 2-Methylspiro[2H-1,4-benzodioxepin-3(5H)4'-piperidine]-1'-carboximidic acid, methyl ester hydrochloride] |  |  | change in vivo at 20 mg/kg (mice; Table III, 20 mg/kg SC): -74%
20 | CNC(=O)N1CCC2(CC1)OCc1ccccc1OC2C (centres unmarked) [Example 70, N,2-Dimethylspiro[2H-1,4-benzodioxepin-3(5H)4'-piperidine]-1'-carboxamide] |  |  | change in vivo at 20 mg/kg (mice; Table III, 20 mg/kg SC): -35%; SHR mm Hg (decrease in mean arterial blood pressure) ([1]; Table III): -39 mm Hg
21 | CC(=O)N1CCC2(CC1)OCc1ccccc1OC2C (centres unmarked) [Example 73, 1'-Acetyl-2-methylspiro[2H-1,4-benzodioxepin-3(5H)4'-piperidine]] |  |  | change in vivo at 20 mg/kg (mice; Table III, 20 mg/kg SC): -27%
22 | CC1Oc2c(Cl)cccc2COC12CCN(CCCC(c1ccccc1)c1ccccc1)CC2 (centres unmarked) [Example 74, 1'-(4,4-Diphenylbutyl)-9-chloro-2-methylspiro[2H-1,4-benzodioxepin-3(5H)4'-piperidine]hydrochloride] |  |  | change in vivo at 20 mg/kg (mice; Table III, 20 mg/kg SC): -25%
23 | CC1Oc2ccc([N+](=O)[O-])cc2COC12CCNCC2 (centres unmarked) [Example 81, 2-Methyl-7-nitrospiro[2H-1,4-benzodioxepin-3(5H)4'-piperidine]hydrochloride] |  |  | change in vivo at 20 mg/kg (mice; Table III, 20 mg/kg SC): -80%
24 | CC1Oc2ccc(Cl)cc2COC12CCN(C(c1ccc(F)cc1)c1ccc(F)cc1)CC2 (centres unmarked) [Example 82, 7-Chloro-2-methyl-1'-bis(4-fluorophenyl)methylspiro[2H-1,4-benzodioxepin-3(5H)4'-piperidine]hydrochloride] |  |  | change in vivo at 20 mg/kg (mice; Table III, 20 mg/kg SC): -30%
25 | CC1Oc2ccccc2COC12CCN(CCCCC(c1ccc(F)cc1)c1ccc(F)cc1)CC2 (centres unmarked) [Example 84, 2-Methyl-1'-[5,5-bis(4-fluorophenyl)pentyl]spiro[2H-1,4-benzodioxepin-3(5H)4'-piperidine]hydrochloride] |  |  | change in vivo at 20 mg/kg (mice; Table III, 20 mg/kg SC): -34%
26 | CC1Oc2ccccc2COC12CCN(CC(O)COc1ccc(F)cc1)CC2 (centres unmarked) [Example 90, 2-Methyl-1'-[2-hydroxy-3-(4-fluorophenoxy)propyl]spiro[2H-1,4-benzodioxepin-3(5H)4'-piperidine]hydrochloride] |  |  | change in vivo at 20 mg/kg (mice; Table III, 20 mg/kg SC): -99%
27 | COc1ccc2c(c1)c(CC(=O)O)c(C)n2C(=O)c1ccc(Cl)cc1 [Indomethacin, reference compound] |  |  | ED50 (mice; po): 0.7 mg/kg
28 | CCC(=O)O[C@](Cc1ccccc1)(c1ccccc1)[C@H](C)CN(C)C [Propoxyphene, reference compound] |  |  | ED50 (mice; sc): 3.9 mg/kg
